From ChEMBL document CHEMBL2375245, “Virtual medicinal chemistry: in silico pre-docking functional group transformation for discovery of novel inhibitors of botulinum toxin serotype A light chain” (Bioorg Med Chem Lett, 2013)

Tests used:
[1] = molecular target: T1, Botulinum neurotoxin type A (Clostridium botulinum, UniProt P0DPI0); assay: Inhibition of Clostridium botulinum BoNT/A light chain (1 to 429 amino acid) using Abz-Thr-dArg-Ile-Asp-Glu-Ala-Asn-Gln-Arg-Ala-Thr-Lys-Nle-Lys(Dnp)-NH2 as substrate after 10 mins by FRET assay
[2] = molecular target: T1, Botulinum neurotoxin type A

T1 sequence (P0DPI0 2-448 limits assumed): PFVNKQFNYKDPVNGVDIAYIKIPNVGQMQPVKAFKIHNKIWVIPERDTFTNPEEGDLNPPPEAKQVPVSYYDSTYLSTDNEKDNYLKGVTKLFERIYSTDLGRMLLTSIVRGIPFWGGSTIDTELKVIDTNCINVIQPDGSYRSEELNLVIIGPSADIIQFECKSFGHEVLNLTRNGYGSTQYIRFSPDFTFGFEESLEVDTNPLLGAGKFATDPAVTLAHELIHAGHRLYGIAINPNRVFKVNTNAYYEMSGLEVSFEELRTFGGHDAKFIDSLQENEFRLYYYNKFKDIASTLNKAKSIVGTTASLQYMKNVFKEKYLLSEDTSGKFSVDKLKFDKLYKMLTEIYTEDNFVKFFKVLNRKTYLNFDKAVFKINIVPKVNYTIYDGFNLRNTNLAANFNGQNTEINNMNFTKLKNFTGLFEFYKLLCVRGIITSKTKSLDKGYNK

SMILES	Ki [1] [µM]	Ki [2] [µM]
O=C(CCC(=O)N(c1ccccc1)c1ccccc1)NO	> 300	–
Cc1nnc(SCc2ccccc2C(=O)NO)n1C	> 300	–
O=C(NO)c1ccccc1-c1ccccc1C(=O)Nc1ccccn1	21	–
COc1ccccc1-c1cc(C(=O)NO)[nH]n1	> 300	–
O=C(CC1C(=O)NCCN1C/C=C/c1ccccc1)NO (stereo not given)	> 300	–
Cc1[nH]c2ccccc2c1C1c2ccccc2C(=O)N1CC(=O)NO (stereo not given)	142	–
Cc1cc(C(=O)NC(Cc2c[nH]c3ccccc23)C(=O)NO)c(C)o1 (stereo not given)	> 300	–
O=C(CC1Sc2ccccc2NC1=O)NO (stereo not given)	> 300	–
Cc1ccc(CN(CC(=O)NO)S(=O)(=O)c2ccccc2)cc1	142	–
CCC(C)C(C(=O)NO)N1C(=O)c2ccccc2C1=O (stereo not given)	188	–
O=C(CNC(=O)c1ccc2noc(-c3ccccc3)c2c1)NO	77	–
Cc1nc(C)c(CCC(=O)NO)c(=O)[nH]1	> 300	–
Cc1ccc(OCC(=O)NC(Cc2ccccc2)C(=O)NO)cc1 (stereo not given)	> 300	–
O=C(NC(Cc1ccccc1)C(=O)NO)C1CCCCC1 (stereo not given)	> 300	–
O=C(CCN1C(=O)c2ccccc2C1c1c[nH]c2ccccc12)NO (stereo not given)	194	–
O=C(NC(Cc1c[nH]c2ccccc12)C(=O)NO)c1ccco1 (stereo not given)	> 300	–
COc1ccc(CN2CCNC(=O)C2CC(=O)NO)cc1OC (stereo not given)	> 300	–
O=C(NC(Cc1c[nH]c2ccccc12)C(=O)NO)c1ccc(Cl)s1 (stereo not given)	> 300	–
O=C(CN(Cc1ccccc1)Cc1ccccc1)NO	–	90
Cc1ccc(C(=O)NC(Cc2c[nH]c3ccccc23)C(=O)NO)o1 (stereo not given)	> 300	–
NC(=O)C1CC(C(=O)NO)=NN1c1ccccc1 (stereo not given)	> 300	–
O=C(COc1ccccc1)NC(Cc1ccccc1)C(=O)NO (stereo not given)	> 300	–
O=C(Cn1nc(Cc2ccccc2)c2ccccc2c1=O)NO	93	–
CCCCOc1ccccc1-c1cc(C(=O)NO)[nH]n1	> 300	–
O=C(CN1C(=O)c2ccccc2C1c1c[nH]c2ccccc12)NO (stereo not given)	> 300	–
Cc1nnc(SCC(=O)NO)n1Cc1ccccc1	> 300	–
O=C(Cc1nc(-c2cccnc2)sc1-c1ccc(Cl)cc1)NO	> 300	–
O=C(CC1SC(N2CCCC2)=NC1=O)NO (stereo not given)	> 300	–
O=C(NO)c1cccc(-c2ccc(CNCC3CCCO3)o2)c1 (stereo not given)	> 300	–
O=C(NC(Cc1c[nH]c2ccccc12)C(=O)NO)c1ccc(F)cc1 (stereo not given)	212	–
